We go through two molecules from patent publication US20090238792A1, “SUPPRESSION OF POSTOPERATIVE ILEUS” (University of Pittsburgh of the Commonwealth System of …, priority 2007, published 2009).

Assay [1] relates to rats with surgical manipulation of the intestine. Description: Rat in vivo gastrointestinal transit of fluorescein-labeled dextran (geometric center). The settings on record: surgically manipulated rats, 24 h postoperatively, i.v. pretreatment 1 h before surgery; glycine 170 mg/kg, valine 263.5 mg/kg; SM vehicle GC=5.2±0.7. As for the experimental part:
(§1) Age matched animals treated with vehicle (normal saline) or valine (263.5 mg/kg, osmotic control) at appropriate time points and at equal volumes served as controls.
(§2) The rodent intestine was subjected to a standardized degree of surgical manipulation as described previously (14). Rats were anesthetized by isoflurane inhalation and the abdomen was opened by a midline laparotomy. The cecum was eventrated and laid out onto a moist gauze. Then, the intestine was inspected along its length and gently compressed using moist cotton applicators. The midline incision was closed by two layers of continuous sutures. All operative procedures were performed under sterile conditions with the intestine being handled only by instruments and never touched directly. Animals were killed at specific time points postoperatively by isoflurane anesthesia inhalation overdose and heart incision.
(§3) Methods: ACI-rats (180-220 g) underwent standardized surgical manipulation of the intestine. […] Age matched animals treated with vehicle or valine (osmotic control) at appropriate time points and at equal volumes served as controls. […] Postoperative mediator mRNA expression in the intestinal muscularis was determined by real-time RT PCR. Leukocyte extravasation was investigated in muscularis whole-mounts. Nitrite production was measured in muscularis cultures. In vivo transit of FITC-dextran was measured using geometric center analysis (GC). In vitro circular muscle contractility was assessed in a standard organ bath. Statistical analysis: unpaired Student t test, p<0.05, mean±SEM.

Assay [2] relates to jejunal circular smooth muscle. Description: In vitro bethanechol stimulated contractile activity of jejunal circular muscle strips. Format: in vivo, rat. The settings on record: manipulated rats, 170 mg/kg glycine or valine pretreatment, 100 mM bethanechol; control 3.2±0.2, SM vehicle 1.9±0.1. As for the experimental part: as §1, §2
Mechanical in vitro activity of the rat mid-jejunum was evaluated at 24 hours postoperatively using smooth muscle strips of the circular muscularis as described previously (rats: N=5-11) (14). After dissection and a 30 minute equilibration period, the individual muscles were incrementally stretched to L0. Then after recording spontaneous contractility for 30 minutes, dose response curves were generated using increasing concentrations of the muscarinic agonist bethanechol ([…]) for 10 minutes and intervening wash periods (KRB) of 10 minutes. The contractile response was recorded and analyzed as g/mm2/sec over a 10 minute period.
as §3

A further assay relates to IL-6 mRNA. Description: Real-time RT-PCR of muscularis IL-6 mRNA 3 hours postoperatively. Format: in vivo, rat. The settings on record: surgically manipulated rats, 3 hours postoperatively. The protocol: as §1, §2
mRNA Expression Analysis: Postoperative mediator mRNA expressions in the small intestinal muscularis were analyzed using SYBR Green two-step real-time RT-PCR as previously described, (N=4-6). […] Total mRNA extraction was performed using the guanidium-thiocyanate phenol-chloroform extraction method. Equal aliquots (200 ng) of total RNA from each sample, quantified by spectrophotometer, were processed for complimentary DNA (cDNA) synthesis. Primer sequences were used as described previously (tumor necrosis factor-a, TNF-a) (35), or designed according to published sequences 36-41, (GenBank accession numbers: NM_017008 [glyceraldehyde phosphate dehydrogenase (GAPDH)], AF233596 [cyclo-oxygenase-2 (COX-2)], NM_012967 [intercellular adhesion molecule-1 (ICAM-1)], M26744 [interleukin-6 (IL-6)] and NM_012611 [inducible nitric oxide synthase (iNOS)]), using Primer Express software (PE Applied Biosystems, Foster City, Calif.) and purchased from Life Technologies (Rockville, Md.). GAPDH was used as an endogenous control. The efficiency and equality of the real-time PCR primer pairs were determined by amplifying serial dilutions of muscularis cDNA. For each target gene different MgCl2 (3 to 5 mM) concentrations were tested to optimize the PCR amplification. […] Relative quantification was performed using the comparative CT method as described by Schmittgen et al. (42).
Methods: ACI-rats (180-220 g) underwent standardized surgical manipulation of the intestine. […] Postoperative mediator mRNA expression in the intestinal muscularis was determined by real-time RT PCR. […] Nitrite production was measured in muscularis cultures. In vivo transit of FITC-dextran was measured using geometric center analysis (GC). In vitro circular muscle contractility was assessed in a standard organ bath. […]

Assay [3] deals with MPO positive leukocytes in the intestinal muscularis. Description: Myeloperoxidase (MPO) histochemistry: leukocyte infiltration in muscularis whole-mounts. It is filed as in vivo, rat. The settings on record: manipulated rats, 24 h postoperatively; glycine 170 mg/kg or valine (263.5 mg/kg); SM vehicle 95±6.4. The protocol: as §1, §2
Histochemistry and Immunohistochemistry: Leukocyte infiltration was quantified on rat whole-mounts of the intestinal muscularis as described previously (N=6-8) (43). Myeloperoxidase (MPO) positive cells were detected using a mixture of 30 mg Hanker-Yates reagent, 30 ml KRB and […] 3% hydrogen peroxide for 10 minutes. Leukocytes were counted in 5 randomly chosen areas in each specimen (3 specimen per animal) at a magnification of 200×.
as §3

Another assay concerns nitrite (nitric oxide). Description: Nitrite release (Griess reaction) from organ cultured muscularis. Format: in vivo, rat. The settings on record: manipulated rats, glycine 170 mg/kg or valine. The protocol:
as §1, §2
Tissue culture and determination of nitrite and prostanoid release in supernatant: The rat small intestine and colon were processed for tissue culture at 24 hours as described previously, (N=5-8) (25). Briefly, the muscularis was isolated by stripping the muscularis from the mucosa and then cut into small pieces and washed twice in Hank's balanced salt solution (HBSS) with 100 U/ml penicillin G and 100 μg/ml streptomycin. Aliquots of muscularis ([…]) were incubated (37° C., 5% CO2) in 6-well tissue culture plates containing 3 ml of supplemented Dulbecco's modified Eagle medium (DMEM)-F12 with 100 U/ml penicillin G and 100 μg/ml streptomycin. After an incubation period of 24 hours, 500 μl aliquots of supernatant were collected, frozen in liquid nitrogen and stored at −80° C. The muscle tissue was blotted dry, and the weight was estimated. To estimate the generation of NO from the intestinal muscularis, nitrite production was measured by the Griess reaction (44). Supernatant from the tissue culture was mixed with equal amount of Griess reagent (0.1% N-(1-naphtyl)ethyl-enediamine dihydrochloride and 1% sulfanilamide in 6% phosphoric acid; 1:1) and incubated at room temperature for 10 minutes. The absorbance at 550 nm was measured with a microplate reader and compared with standard prepared from serial dilutions of sodium nitrite. Each standard and supernatant sample was analyzed in duplicate, and the mean value of nitrite production was normalized to the tissue weight.
as §3
On the technique in general: Griess reagent forms a coloured azo dye with nitrite.

The subject of assay [4] is prostanoids. Description: Prostanoid release (ELISA) from organ cultured muscularis. Format: in vivo, rat. The settings on record: manipulated rats, glycine 170 mg/kg or valine. The protocol: Age matched animals treated with vehicle (normal saline) or valine (263.5 mg/kg, osmotic control) at appropriate time points and at equal volumes served as controls. The rodent intestine was subjected to a standardized degree of surgical manipulation as described previously (14). Rats were anesthetized by isoflurane inhalation and the abdomen was opened by a midline laparotomy. The cecum was eventrated and laid out onto a moist gauze. Then, the intestine was inspected along its length and gently compressed using moist cotton applicators. The midline incision was closed by two layers of continuous sutures. All operative procedures were performed under sterile conditions with the intestine being handled only by instruments and never touched directly. Animals were killed at specific time points postoperatively by isoflurane anesthesia inhalation overdose and heart incision. The synthesis of prostanoids released into the tissue culture supernatant over a period of 24 hours was assayed by ELISA. After incubation the culture median and tissue was inspected, 500 μL aliquots of supernatant were frozen in liquid nitrogen and stored at −80° C. The muscle tissue was blotted dry and weighed. Culture supernatants were assayed for the measurement of prostaglandin secretion by enzyme immunoassay (Cayman Chemicals, Ann Arbor, Mich.). The ELISA was carried out in a 1:10 and 1:30 dilution. The assay was corrected for wet tissue weights and the prostaglandin ELISA kit sensitivity was 20 pg/ml.

Assay [5] relates to mice subjected to surgical intestinal manipulation (SM). In words: Gastrointestinal transit (geometric center) after surgical intestinal manipulation, IL-10 treatment. It is filed as in vivo. The settings on record: SM + IL-10 12.5 μg/kg s.c. before and after; control=10.6±0.3, SM=4.6±0.6. As for the experimental part:
(§4) Methods: Mice were subjected to surgical intestinal manipulation (SM) to induce ileus. Before and after animals were treated with IL-10 (12.5 μg/kg, s.c.). Gastrointestinal transit and organ bath measured motility. Histochemistry on jejunal muscularis whole-mounts quantified neutrophil recruitment. Muscularis mediator expressions were measured by RT-PCR, Griess reaction, ELISA and Luminex (N=4 each).

A further assay relates to jejunal circular muscle. In words: Organ bath: jejunal circular muscle contractions to bethanechol, IL-10 treatment. It is filed as in vivo, mice. The settings on record: SM + IL-10 12.5 μg/kg s.c.; 100 μM bethanechol; SM alone 59.2±4.8%. As for the experimental part: as §4
Assay [6] deals with muscularis neutrophil recruitment. In words: Histochemistry on jejunal muscularis whole-mounts: neutrophil recruitment, IL-10 treatment. Format: in vivo, mice. The settings on record: IL-10 treatment compared to SM with vehicle. The protocol: as §4
Assay [7] deals with IL-6, IL-1β and MCP 1 mRNAs. In words: RT-PCR of muscularis mediator mRNAs, IL-10 treatment. The settings on record: treated animals vs SM. Format: in vivo, mice. As for the experimental part: as §4
Assay [8] concerns GM-CSF, VEGF, IL-1α, IL-6, MCP-1 and MIP-1α. In words: Luminex mediator release from muscularis, IL-10 treatment. The settings on record: SM + IL-10 vs SM. It is filed as in vivo, mice. As for the experimental part:
as §4

A further assay concerns NO. Description: Griess reaction NO release from muscularis, IL-10 treatment. It is filed as in vivo, mice. The settings on record: SM + IL-10; control=47.1, SM=607.7. The protocol: as §4
In assay [9] the test system is prostanoids. In words: ELISA prostanoid release from muscularis, IL-10 treatment. Format: in vivo, mice. The settings on record: SM + IL-10; control=4033.4, SM=13111. As for the experimental part:
as §4
A general note: An ELISA detects its analyte on a solid surface through an enzyme-linked reagent.

In the case of `CC(C)[C@H](N)C(=O)O` [valine, reference compound], the “geometric center (GC) of gastrointestinal transit” value in [1] was 6.2±0.5. The “mean contractile force, bethanechol stimulated” value in assay [2] was 2.1±0.2 g/mm2/s. Also, the “postoperative induction of IL-6 mRNA” value with IL-6 mRNA was “no effect”. In addition, the “infiltrating MPO positive leukocytes” value in [3] turned out to be 93±2.7 cells/field at 200×. The “nitrite release, fold increase over control, colon” value in the assay on nitrite (nitric oxide) (colonic muscularis 24 h organ culture, SM vehicle 10.9-fold) was found to be 9.5 fold. Also, the “nitrite release, fold increase over control, jejunum” value in the assay with nitrite (nitric oxide) (jejunal muscularis 24 h organ culture, SM vehicle 11.4-fold) is 12.0 fold. Also, the “prostanoid release, fold of control, colon” value in the assay with prostanoids [4] (colonic muscularis 24 h organ culture, SM 3.1-fold) worked out at 1.5 fold. Moreover, the “prostanoid release, fold of control, jejunum” value in the assay on prostanoids [4] (jejunal muscularis 24 h organ culture, SM 5.9-fold) is reported as 3.4 fold.

B1: interleukin-10 (protein, UniProt P18893 19-178, looked up)
Interleukin-10: SRGQYSREDNNCTHFPVGQSHMLLELRTAFSQVKTFFQTKDQLDNILLTDSLMQDFKGYLGCQALSEMIQFYLVEVMPQAEKHGPEIKEHLNSLGEKLKTLRMRLRRCHRFLPCENKSKAVEQVKSDFNKLQDQGVYKAMNEFDIFINCIEAYMMIKMKS
B1: in assay [5], the “geometric center (GC) of gastrointestinal transit” value turned out to be 10.8±0.4. In addition, the “jejunal circular muscle contractions to bethanechol, % of control” value in the assay with jejunal circular muscle is recorded as 93.6±21.1%. Further, in [6], the muscularis neutrophil recruitment entry is recorded as “significantly less”. Also, the “induction of IL-6, IL-1β and MCP 1 mRNAs after SM” value in [7] is “less induction”. Moreover, the “mediator release (GM-CSF, VEGF, IL-1α, IL-6, MCP-1 and MIP-1α)” value in assay [8] is listed as “significantly diminished”. Further, in the assay on NO, the NO release came to 49.1 µM/g. The “prostanoids (PG) release” value in the assay on prostanoids [9] is 3946.7 pg/mL/mg.
